± gives the standard deviation of the averaged measurements.
Test: TIMS collisional cross section (CCS, N2) of the lipid ion; higher = larger ion cross section
Details: ionization mode: positive, one isomer drawn
Procedure: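 Lipid extracts of human plasma (NIST SRM 1950), mouse liver and HeLa cells were separated by nanoflow C18 LC (30 min gradient, 60 °C) and analysed by TIMS-PASEF on a timsTOF Pro in positive ion mode. Ion mobility was calibrated with the Agilent tuning mix and converted to collisional cross sections (Mason–Schamp) in N2 drift gas. Lipids were identified by MS/MS (SimLipid) and manual curation. SMILES are LIPID MAPS representative structures for the annotated lipid.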

CCCCCCCCCCCCCCCCCCCCCC(=O)OC[C@@H](O)COP(=O)(O)OCCN [LPE 22:0] (ion (formula + adduct): [C27H56NO7P+H] 1+)
TIMS collisional cross section (sample type: HeLa): 236.4 Å²

CCCCC/C=C\C/C=C\C/C=C\CCCCCCC(=O)OC[C@H](COP(=O)(O)OCCN)OC(=O)CCCCCCCCCCCCCCC [PE 20:3@_16:0] (ion (formula + adduct): [C41H76NO8P+H] 1+)
TIMS collisional cross section (sample type: HeLa): 279.1 Å²

CCCCCCCC/C=C\CCCCCCCCCCCCCC(=O)OC[C@@H](O)COP(=O)([O-])OCC[N+](C)(C)C [LPC 24:1] (ion (formula + adduct): [C32H64NO7P+H] 1+)
TIMS collisional cross section (sample type: HeLa): 253.5 Å² | TIMS collisional cross section (sample type: Liver): 253.85 ± 0.49 Å² | TIMS collisional cross section (sample type: plasma): 253.3 Å²

CC/C=C\C/C=C\C/C=C\C/C=C\C/C=C\CCCC(=O)O[C@H](COC(=O)CCC/C=C\C/C=C\C/C=C\C/C=C\CCCCC)COP(=O)(O)OCCN [PE 20:4_20:5] (ion (formula + adduct): [C45H72NO8P+H] 1+)
TIMS collisional cross section (sample type: HeLa): 279.1 Å²

CCCCC/C=C\C/C=C\CCCCCCCC(=O)O[C@H](COC(=O)CCCCCCC/C=C\CCCCCCCC)COP(=O)(O)OCCN [PE 18:1_18:2@] (ion (formula + adduct): [C41H76NO8P+H] 1+)
TIMS collisional cross section (sample type: HeLa): 277.9 Å² | TIMS collisional cross section (sample type: plasma): 275.8 Å²

CCCCCCCCCCCCCCCCCCCCCC(=O)OC[C@@H](COC(=O)CCCCCCCCCCCCCC)OC(=O)CCCCCCCCCCCCCCC [TG 15:0_16:0_22:0] (ion (formula + adduct): [C56H108O6+NH4] 1+)
TIMS collisional cross section (sample type: plasma): 328.3 Å²

CCCCCCCCCCCCC/C=C/[C@@H](O)[C@H](CO[C@@H]1OC(CO)[C@@H](O[C@@H]2OC(CO)[C@H](O)[C@H](O)C2O)[C@H](O)C1O)NC(=O)CCCCCCCCCCCCCCC (some centres not stated) [GlcCer d18:1_16:0] (ion (formula + adduct): [C46H87NO13+H] 1+)
TIMS collisional cross section (sample type: HeLa): 304.1 Å²

CCCCC/C=C\C/C=C\CCCCCCCC(=O)O[C@H](COC(=O)CCCCCCC/C=C\CCCCCCCC)COC(=O)CCCCCCCCCCC/C=C\CCCCCCCC [TG 18:1_18:2_22:1] (ion (formula + adduct): [C61H110O6+NH4] 1+)
TIMS collisional cross section (sample type: Liver): 335.3 Å² | TIMS collisional cross section (sample type: plasma): 335 Å²

CCCCCCCCCCCCCCCCCCCCCC(=O)OC[C@@H](COC(=O)CCCCCCCCCCCCCCCCC)OC(=O)CCCCCCCCCCCCCCCCCCCCC [TG 18:0_22:0_22:0] (ion (formula + adduct): [C65H126O6+NH4] 1+)
TIMS collisional cross section (sample type: Liver): 355.9 Å² | TIMS collisional cross section (sample type: plasma): 355.2 Å²

CCCCCCC/C=C\CCCCCCCC(=O)O[C@@H](COC(=O)CCCCCCC/C=C\CCCCCCCC)COC(=O)CCCCCCCCCCCCCC [TG 15:0_17:1_18:1] (ion (formula + adduct): [C53H98O6+NH4] 1+)
TIMS collisional cross section (sample type: HeLa): 315.9 Å²

CCCCCCCC/C=C\CCCCCCCCCC(=O)O[C@H](COC(=O)CCCCCCCCCCCCCCC)COP(=O)([O-])OCC[N+](C)(C)C [PC 16:0_20:1@] (ion (formula + adduct): [C44H86NO8P+H] 1+)
TIMS collisional cross section (sample type: Liver): 295.2 Å²

CC/C=C\C/C=C\C/C=C\C/C=C\C/C=C\C/C=C\CCC(=O)O[C@H](COC(=O)CCCCCCCCCCCCCC)COP(=O)(O)OCCN [PE 15:0@_22:6] (ion (formula + adduct): [C42H72NO8P+H] 1+)
TIMS collisional cross section (sample type: Liver): 275.7 Å²

CCCCCCCCCCCCCCCCCC(=O)OC[C@@H](O)COP(=O)(O)O[C@H]1C(O)C(O)C(O)[C@@H](O)C1O (some centres not stated) [LPI 18:0] (ion (formula + adduct): [C27H53O12P+H] 1+)
TIMS collisional cross section (sample type: HeLa): 248.8 Å² | TIMS collisional cross section (sample type: Liver): 249.1 Å² | TIMS collisional cross section (sample type: plasma): 248.8 Å²

CC/C=C\C/C=C\C/C=C\C/C=C\C/C=C\C/C=C\CCC(=O)O[C@H](COC(=O)CCCCCCCCCCCCC)COP(=O)([O-])OCC[N+](C)(C)C [PC 14:0@_22:6] (ion (formula + adduct): [C44H76NO8P+H] 1+)
TIMS collisional cross section (sample type: plasma): 284.8 Å²

CCCCCC/C=C\CCCCCCCCCC(=O)O[C@H](COC(=O)CCCCCCCCCCCCCCCCC)COP(=O)([O-])OCC[N+](C)(C)C [PC 18:0_18:1] (ion (formula + adduct): [C44H86NO8P+H] 1+)
TIMS collisional cross section (sample type: HeLa): 294.7 Å² | TIMS collisional cross section (sample type: plasma): 295.2 Å²

CCCCCC/C=C\CCCCCCCC(=O)O[C@@H](COC(=O)CCCCCCC/C=C\CCCCCCCC)COC(=O)CCCCCCCCCCC [TG 12:0_16:1_18:1] (ion (formula + adduct): [C49H90O6+NH4] 1+)
TIMS collisional cross section (sample type: plasma): 303.25 ± 0.35 Å²

CCCCCCCC/C=C\CCCCCCCC(=O)OC[C@@H](COC(=O)CCCCCCCCCCCCCCC)OC(=O)CCCCCCCCCCCCCCCC [TG 16:0_17:0_18:1] (ion (formula + adduct): [C54H102O6+NH4] 1+)
TIMS collisional cross section (sample type: HeLa): 321.9 Å² | TIMS collisional cross section (sample type: Liver): 321.6 Å² | TIMS collisional cross section (sample type: plasma): 321.6 Å²

CC/C=C\C/C=C\C/C=C\CCCCCCCC(=O)O[C@H](COC(=O)CCCCCCCCCCCCC)COP(=O)([O-])OCC[N+](C)(C)C [PC 14:0@_18:3] (ion (formula + adduct): [C40H74NO8P+H] 1+)
TIMS collisional cross section (sample type: Liver): 277.5 Å²

CCCCC/C=C\C/C=C\CCCCCCCC(=O)OC[C@H](COP(=O)(O)OCCN)OC(=O)CCCCCCC/C=C\CCCCCC [PE 18:2@_16:1] (ion (formula + adduct): [C39H72NO8P+H] 1+)
TIMS collisional cross section (sample type: HeLa): 270 Å²

CCCCCC/C=C\CCCCCCCC(=O)OC[C@H](COP(=O)(O)OCCN)OC(=O)CCCCCCC/C=C\CCCCCCC [PE 16:1_17:1@] (ion (formula + adduct): [C38H72NO8P+H] 1+)
TIMS collisional cross section (sample type: HeLa): 268.3 Å²

CCCCC/C=C\C/C=C\C/C=C\C/C=C\CCCC(=O)OC[C@@H](COC(=O)CCCCCCCCCCCCCCC)OC(=O)CCCCCCCCCCCCCCC [TG 16:0_16:0_20:4] (ion (formula + adduct): [C55H98O6+NH4] 1+)
TIMS collisional cross section (sample type: HeLa): 320.5 Å²

CCCCC/C=C\C/C=C\C/C=C\CCCCCCC(=O)OC[C@@H](O)COP(=O)([O-])OCC[N+](C)(C)C [LPC 20:3_0:0] (ion (formula + adduct): [C28H52NO7P+H] 1+)
TIMS collisional cross section (sample type: Liver): 231.55 ± 1.1 Å² | TIMS collisional cross section (sample type: plasma): 232.43 ± 1.2 Å²

CCCCCCCCCCCCC/C=C/C=C/C(=O)OC[C@@H](O)COP(=O)([O-])OCC[N+](C)(C)C [LPC 18:2_0:0] (ion (formula + adduct): [C26H50NO7P+H] 1+)
TIMS collisional cross section (sample type: HeLa): 227.3 ± 1.3 Å² | TIMS collisional cross section (sample type: Liver): 227.6 ± 1.3 Å² | TIMS collisional cross section (sample type: plasma): 226.96 ± 1.1 Å²

CCCCCC/C=C\CCCCCCCC(=O)O[C@@H](COC(=O)CCCCCCC/C=C\CCCCCCCC)COC(=O)CCCCCCCCCCCCC [TG 14:0_16:1_18:1] (ion (formula + adduct): [C51H94O6+NH4] 1+)
TIMS collisional cross section (sample type: HeLa): 309.3 Å² | TIMS collisional cross section (sample type: Liver): 310.3 Å² | TIMS collisional cross section (sample type: plasma): 309.45 ± 0.071 Å²

CCCCC/C=C\C/C=C\C/C=C\CCCCCCC(=O)O[C@H](COC(=O)CCCCCCCCC/C=C\CCCCCCCC)COP(=O)([O-])OCC[N+](C)(C)C [PC 20:1@_20:3] (ion (formula + adduct): [C48H88NO8P+H] 1+)
TIMS collisional cross section (sample type: plasma): 301.7 Å²

CCCCC/C=C\C/C=C\C/C=C\C/C=C\C/C=C\CCC(=O)O[C@H](COC(=O)CCCCCCCCCCCCCCC)COP(=O)([O-])OCC[N+](C)(C)C [PC 16:0@_22:5] (ion (formula + adduct): [C46H82NO8P+H] 1+)
TIMS collisional cross section (sample type: Liver): 293.8 Å²

CCCCC/C=C\C/C=C\C/C=C\C/C=C\CCCC(=O)O[C@H](COC(=O)CCCCCCC/C=C\CCCCCCCC)COP(=O)([O-])OCC[N+](C)(C)C [PC 18:1_20:4] (ion (formula + adduct): [C46H82NO8P+H] 1+)
TIMS collisional cross section (sample type: plasma): 294.3 Å²

CCCCCCCC/C=C\CCCCCCCCCCCC(=O)O[C@@H](CO)COC(=O)CCCCCCC/C=C\CCCCCCCC [DG 18:1_22:1_0:0] (ion (formula + adduct): [C43H80O5+NH4] 1+)
TIMS collisional cross section (sample type: Liver): 278.5 Å²

CCCCC/C=C\C/C=C\C/C=C\CCCCC(=O)O[C@H](COC(=O)CCCCCCC/C=C\C/C=C\CCCCC)COP(=O)(O)OCCN [PE 18:2_18:3] (ion (formula + adduct): [C41H72NO8P+H] 1+)
TIMS collisional cross section (sample type: Liver): 270.2 Å²

CC/C=C\C/C=C\C/C=C\C/C=C\C/C=C\CCCCCC(=O)OC[C@@H](COC(=O)CCCCCCC/C=C\CCCCCC)OC(=O)CCCCCCC/C=C\CCCCCCCC [TG 16:1_18:1_22:5] (ion (formula + adduct): [C59H100O6+NH4] 1+)
TIMS collisional cross section (sample type: HeLa): 325.9 Å² | TIMS collisional cross section (sample type: plasma): 327.7 Å²

CC/C=C\C/C=C\C/C=C\C/C=C\C/C=C\C/C=C\CCC(=O)O[C@H](COC(=O)CCCCCCCCCCCCCCC)COP(=O)(O)OCCN [PE 16:0_22:6] (ion (formula + adduct): [C43H74NO8P+H] 1+)
TIMS collisional cross section (sample type: HeLa): 278.6 Å²

Reference: the supplement of paper PMC6965134
